Assay results as given in US8088791B2, “Antibacterial agents” (Biots Scientific Management Pty Ltd, priority 2006, dated 2012).
Values after ≈ are worked out from the molar mass of the structure shown.

Tests used:
Bacillus subtilis 168CA = experiment: Minimum Inhibitory Concentration (MIC) testing, broth microdilution, Bacillus subtilis; type: cell-based; settings: Bacillus subtilis 168CA; for MIC: read-out: Bacillus subtilis MICs Activity
Description: (§1) Compounds of this invention were tested for antimicrobial activity by susceptibility testing in liquid media. MICs for compounds against each strain were determined by a broth microdilution method according to the National Committee for Clinical Laboratory Standards (NCCLS) guidelines. (NCCLS. 2000. Methods for dilution antimicrobial susceptibility tests for bacteria that grow aerobically—fifth edition. Approved standard M7-A5. NCCLS, Wayne, Pa.)
(§2) Briefly, test compounds are prepared in 100 μl of 1.6% DMSO solution in multiwell plates. Several bacterial colonies from a freshly streaked plate are transferred to an appropriate rich broth, such as Mueller Hinton. The cell suspension is adjusted to an optical density of 0.09 and further diluted 1:100 with warm 2× broth. This cell suspension is dispensed into the wells containing compound solution so that the final volume is 200 μl. The plates are incubated overnight (16-20 hours) at 37° C. and turbidity is scored by eye and quantified spectrophotometrically. The MIC is defined as the lowest concentration inhibiting visible growth.
Activities were scored as ‘A’ if the MIC was ≦8 micrograms/ml, ‘B’ if the MIC was 16 to 64 micrograms/ml and ‘C’ if the MIC was greater than 64 micrograms/ml.

[1] = test system: Staphylococcus aureus ATCC29213; experiment: Minimum Inhibitory Concentration (MIC) testing, broth microdilution, Staphylococcus aureus; type: cell-based; settings: Staphylococcus aureus ATCC29213; for MIC: read-out: Staphylococcus aureus MICs Activity
Description: as §1, §2
Some of the compounds of the Examples were also tested for activity against the pathogenic organism Staphylococcus aureus ATCC29213. […] Activities were again scored as ‘A’ if the MIC was ≦8 micrograms/ml, ‘B’ if the MIC was 16 to 64 micrograms/ml and ‘C’ if the MIC was greater than 64 micrograms/ml.

Compound | MIC (Bacillus subtilis 168CA) [µg/mL] | also measured
3-Pentyl-2,3-dihydro-1,4-benzodioxine-6-carboxamide and 2-pentyl-2,3-dihydro-1,4-benzodioxine-6-carboxamide [Example 95] | – | Bacillus subtilis MICs Activity (Bacillus subtilis 168CA): B (‘B’ if the MIC was 16 to 64 micrograms/ml); Staphylococcus aureus MICs Activity [1]: C (‘C’ if the MIC was greater than 64 micrograms/ml)
CCCCCCCCCOc1cccc(C(N)=O)c1 [Example 1, 3-Nonyloxy-benzenecarboxamide] | < 8 | MIC [1]: < 8 µg/mL
CCCOc1cccc(C(N)=O)c1 [Example 2, 3-Propoxybenzenecarboxamide] | > 64 | –
CC(C)Oc1cccc(C(N)=O)c1 [Example 3, 3-Isopropoxybenzenecarboxamide] | > 64 | –
NC(=O)c1cccc(OCC2CC2)c1 [Example 4, 3-(Cyclopropylmethoxy)benzenecarboxamide] | > 64 | –
CCCCCOc1cccc(C(N)=O)c1 [Example 5, 3-(Pentyloxy)benzenecarboxamide] | 16 to 64 (≈ 77.2 to 309 µM) | MIC [1]: 16 to 64 µg/mL (≈ 77.2 to 309 µM)
C=CCOc1cccc(C(N)=O)c1 [Example 6, 3-(Allyloxy)benzenecarboxamide] | > 64 | –
CCCCOc1cccc(C(N)=O)c1 [Example 7, 3-Butoxybenzenecarboxamide] | > 64 | –
CCCCCCOc1cccc(C(N)=O)c1 [Example 8, 3-(Hexyloxy)benzenecarboxamide] | 16 to 64 (≈ 72.3 to 289 µM) | MIC [1]: 16 to 64 µg/mL (≈ 72.3 to 289 µM)
COCCOc1cccc(C(N)=O)c1 [Example 9, 3-(2-Methoxyethoxy)benzenecarboxamide] | > 64 | –
NC(=O)c1cccc(OCCCCOc2ccccc2)c1 [Example 10, 3-(4-Phenoxybutoxy)benzenecarboxamide] | < 8 | –
C=C(C)COc1cccc(C(N)=O)c1 [Example 11, 3-[(2-Methyl-2-propenyl)oxy]benzenecarboxamide] | > 64 | –
CC(C)CCOc1cccc(C(N)=O)c1 [Example 13, 3-(Isopentyloxy)benzenecarboxamide] | 16 to 64 (≈ 77.2 to 309 µM) | –
CC(C)CCCOc1cccc(C(N)=O)c1 [Example 14, 3-[(4-Methylpentyl)oxy]benzenecarboxamide] | 16 to 64 (≈ 72.3 to 289 µM) | –
CCCOCCOc1cccc(C(N)=O)c1 [Example 16, 3-(2-Propoxyethoxy)benzenecarboxamide] | > 64 | –
NC(=O)c1cccc(OCCCCc2ccccc2)c1 [Example 20, 3-(4-Phenylbutoxy)benzenecarboxamide] | < 8 | –
NC(=O)c1cccc(OCCCCCc2ccccc2)c1 [Example 21, 3-[(5-Phenylpentyl)oxy]benzenecarboxamide] | 16 to 64 (≈ 56.5 to 226 µM) | –
CC(C)CCCCOc1cccc(C(N)=O)c1 [Example 22, 3-[(5-Methylhexyl)oxy]benzenecarboxamide] | 16 to 64 (≈ 68 to 272 µM) | –
NC(=O)c1cccc(OCc2ccc3ccccc3n2)c1 [Example 23, 3-(2-Quinolinylmethoxy)benzenecarboxamide] | 16 to 64 (≈ 57.5 to 230 µM) | –
CCOC(=O)CCCOc1cccc(C(N)=O)c1 [Example 25, Ethyl 4-[3-(aminocarbonyl)phenoxy]butanoate] | > 64 | –
CCOC(=O)COc1cccc(C(N)=O)c1 [Example 33, Ethyl 2-[3-(aminocarbonyl)phenoxy]acetate] | > 64 | –
NC(=O)c1cccc(OCCc2ccc(F)cc2)c1 [Example 34, 3-[(4-Fluorophenethyl)oxy]benzenecarboxamide] | 16 to 64 (≈ 61.7 to 247 µM) | –
COc1ccc(CCOc2cccc(C(N)=O)c2)cc1 [Example 35, 3-[(4-Methoxyphenethyl)oxy]benzenecarboxamide] | 16 to 64 (≈ 59 to 236 µM) | –
CCOC(=O)CCCCCOc1cccc(C(N)=O)c1 [Example 37, Ethyl 6-[3-(aminocarbonyl)phenoxy]hexanoate] | > 64 | –
COC(=O)CCCCCCCCCOc1cccc(C(N)=O)c1 [Example 38, Methyl 10-[3-(aminocarbonyl)phenoxy]decanoate] | < 8 | –

Compound | MIC (Bacillus subtilis 168CA) [µg/mL] | also measured
NC(=O)c1cccc(OCCCCC2CCCCC2)c1 [Example 44, 3-(4-Cyclohexylbutoxy)benzenecarboxamide] | < 8 | –
CCCCC#CCCCCOc1cccc(C(N)=O)c1 [Example 48, 3-(5-Decynyloxy)benzenecarboxamide] | < 8 | –
CCCCCCC#CCOc1cccc(C(N)=O)c1 [Example 50, 3-(2-Nonynyloxy)benzenecarboxamide] | < 8 | –
Cc1cccc2nc(COc3ccc(F)c(C(N)=O)c3F)ccc12 [Example 96, 2,6-Difluoro-3-(5-methyl-quinolin-2-ylmethoxy)-benzamide] | 16 to 64 (≈ 48.7 to 195 µM) | –
Cc1ccc2nc(COc3ccc(F)c(C(N)=O)c3F)ccc2c1 [Example 97, 2,6-Difluoro-3-(6-methyl-quinolin-2-ylmethoxy)-benzamide] | < 8 | –
NC(=O)c1c(F)ccc(OCc2ccc3cc(Cl)ccc3n2)c1F [Example 110, 3-(6-Chloro-quinolin-2-ylmethoxy)-2,6-difluoro-benzamide] | < 8 | –
NC(=O)c1c(F)ccc(OCc2ccc3cccc(Cl)c3n2)c1F [Example 112, 3-(8-Chloro-quinolin-2-ylmethoxy)-2,6-difluoro-benzamide] | < 8 | –
NC(=O)c1c(F)ccc(OCc2ccc3ccccc3c2)c1F [Example 113, 2,6-Difluoro-3-(naphthalen-2-ylmethoxy)-benzamide] | < 8 | –
Cc1cccc(-c2ccc3sc(COc4ccc(F)c(C(N)=O)c4F)nc3c2)c1 [Example 142, 2,6-Difluoro-3-(5-m-tolyl-benzothiazol-2-ylmethoxy)-benzamide] | < 8 | –
NC(=O)c1c(F)ccc(OCc2cccc(OCc3ccccc3)c2)c1F [Example 154, 3-(3-Benzyloxy-benzyloxy)-2,6-difluoro-benzamide] | < 8 | –
Cc1sc(-c2ccccc2)nc1CCCOc1ccc(F)c(C(N)=O)c1F [Example 160, 2,6-Difluoro-3-[3-(5-methyl-2-phenyl-thiazol-4-yl)-propoxy]-benzamide] | < 8 | –
NC(=O)c1c(F)ccc(OCc2cn3ccccc3n2)c1F [Example 203, 2,6-Difluoro-3-(imidazo[1,2-a]pyridin-2-ylmethoxy)benzenecarboxamide] | > 64 | –
NC(=O)c1c(F)ccc(OCc2nnc(-c3ccc(Cl)cc3)s2)c1F [Example 234, 3-[5-(4-Chlorophenyl)-1,3,4-thiadiazol-2-yl]methoxy-2,6-difluorobenzenecarboxamide] | < 8 | –
NC(=O)c1c(F)ccc(OCc2nnc(-c3ccccc3)o2)c1F [Example 238, 2,6-Difluoro-3-[(5-phenyl-1,3,4-oxadiazol-2-yl)methoxy]benzenecarboxamide] | 16 to 64 (≈ 48.3 to 193 µM) | –
NC(=O)c1c(F)ccc(OCc2nc(-c3ccccc3O)no2)c1F [Example 253, 2,6-Difluoro-3-[3-(2-hydroxyphenyl)-1,2,4-oxadiazol-5-yl]methoxybenzenecarboxamide] | 16 to 64 (≈ 46.1 to 184 µM) | –
NC(=O)c1c(F)ccc(OCc2nc(-c3ccccc3Cl)no2)c1F [Example 254, 3-[3-(2-Chlorophenyl)-1,2,4-oxadiazol-5-yl]methoxy-2,6-difluorobenzenecarboxamide] | < 8 | –
NC(=O)c1c(F)ccc(OCc2nc(-c3cccc(Cl)c3)no2)c1F [Example 255, 3-[3-(3-Chlorophenyl)-1,2,4-oxadiazol-5-yl]methoxy-2,6-difluorobenzenecarboxamide] | < 8 | –
NC(=O)c1c(F)ccc(OCc2nc(-c3cccc(C(F)(F)F)c3)no2)c1F [Example 258, 2,6-Difluoro-3-(3-[3-(trifluoromethyl)phenyl]-1,2,4-oxadiazol-5-ylmethoxy)benzenecarboxamide] | < 8 | –
NC(=O)c1c(F)ccc(OCc2nc(-c3cccc([N+](=O)[O-])c3)no2)c1F [Example 259, 2,6-Difluoro-3-[3-(3-nitrophenyl)-1,2,4-oxadiazol-5-yl]methoxybenzenecarboxamide] | < 8 | –
COc1ccc(-c2noc(COc3ccc(F)c(C(N)=O)c3F)n2)c(OC)c1 [Example 261, 3-[3-(2,4-Dimethoxyphenyl)-1,2,4-oxadiazol-5-yl]methoxy-2,6-difluorobenzenecarboxamide] | 16 to 64 (≈ 40.9 to 164 µM) | –
NC(=O)c1c(F)ccc(OCc2nc(COc3c(Cl)cccc3Cl)no2)c1F [Example 264, 3-(3-[(2,6-Dichlorophenoxy)methyl]-1,2,4-oxadiazol-5-ylmethoxy)-2,6-difluorobenzenecarboxamide] | 16 to 64 (≈ 37.2 to 149 µM) | –
COc1cc(-c2noc(COc3ccc(F)c(C(N)=O)c3F)n2)ccc1OC(F)F [Example 328, 3-[3-(4-Difluoromethoxy-3-methoxy-phenyl)-[1,2,4]oxadiazol-5-ylmethoxy]-2,6-difluoro-benzamide] | < 8 | –
NC(=O)c1c(F)ccc(OCc2nc(-c3ccc(Cl)c([N+](=O)[O-])c3)no2)c1F [Example 329, 3-[3-(4-Chloro-3-nitro-phenyl)-[1,2,4]oxadiazol-5-ylmethoxy]-2,6-difluoro-benzamide] | < 8 | –
NC(=O)c1c(F)ccc(OCc2ccc3cccnc3c2)c1F [Example 330, 2,6-Difluoro-3-(quinolin-7-ylmethoxy)-benzamide] | 16 to 64 (≈ 50.9 to 204 µM) | –
NC(=O)c1c(F)ccc(OCc2cccc([N+](=O)[O-])c2)c1F [Example 332, 2,6-Difluoro-3-(3-nitro-benzyloxy)-benzamide] | 16 to 64 (≈ 51.9 to 208 µM) | –
